Assay results: PubChem BioAssay AID2060512 (Molecular Pharmacology Branch, DTP, NCI, 2025)

Test system: 186277-243-T-J2-PDC complex spheroid viability
Assay: Anticancer human tumor 186277-243-T-J2-PDC patient-derived colon adenocarcinoma cell line growth inhibition [GQUAD]
Conditions: for IC50: curve of first compound; for viability, T/C: stronger effect = lower value
Text: DNA G-quadruplex Stabilizer Agents in Combinations in Complex Spheroids
A high-throughput screen of multi-cell type tumor spheroids was designed to identify active combinations of DNA G-quadruplex stabilizer agents and targeted small molecules. Complex spheroids include a stromal component modeled by human endothelial cells (HUVEC) and fibroblasts modeled by human mesenchymal stem cells (MSCs). The concentration ranges selected for each drug and investigational agent were based upon clinically achievable concentrations if the clinical Cmax of the agent was known.
Compounds. The drugs and investigational agents: pidnarulex (CX-5461; NSC782164), APTO-253 (NSC789042), BRACO-19 (NSC847499), peposertib (NSC802822), ceralasertib (NSC780249), elimusertib (NSC800525), camonsertib (NSC841442), AZD-1390 (NSC803789), olaparib (NSC753686), talazoparib (NSC767125), ART-558 (NSC835418), sotorasib (NSC818433), MRTX-1133 (NSC836407), SN-38 (NSC673596), topotecan (NSC609699), etoposide (NSC141540), doxorubicin (NSC123127), gemcitabine (NSC613327), 5-fluorouracil (NSC19893), paclitaxel (NSC125973), vemurafenib (NSC761431), panobinostat (NSC761190), R-306465 (JNJ-16241199; NSC773264), adavosertib (NSC754352), TP-3654 (NSC805149), carboplatin (NSC241240), KSQ-4279 (NSC840948), and staurosporine (NSC755774) were obtained from the National Cancer Institute (NCI) Developmental Therapeutics Program Chemical Repository (34). The FDA-approved anticancer drug set is available from the NCI Developmental Therapeutics Program. […] The stock solutions were prepared in dimethyl sulfoxide (DMSO, Sigma-Aldrich, St. Louis, MO, cat. D2650) at 800-fold the tested concentration and stored at -70 degrees C prior to their use. All drugs and investigational agents were tested over a range starting from a high concentration at or near the clinical Cmax and decreasing in half-log increments. If the clinical Cmax for an agent had not been determined, the highest concentration tested was 10 microM.
2.3 Cell Culture. All cells were maintained in an incubator at 37 degrees C and 5% CO2 with 95% humidity. The PDC lines were cultured according to standard operating procedures established by the NCI PDMR. All PDCs were thawed and cultured in Matrigel-coated flasks prepared with a working solution of 1X Ham's F-12 nutrient mix, without supplementation (Invitrogen, cat. 11765054), 100 U/mL penicillin-streptomycin (Invitrogen, cat. 15140122), and 2.5% Matrigel (Corning Inc., cat. 354248) for the first three passages. The 857933-349-R-J2-PDC line was cultured in 6C/Colon 1B media, which includes advanced DMEM/F-12 (Thermo Fisher Scientific, cat. 12634028), 10 mM HEPES (Thermo Fisher Scientific, cat. 15630080), 1X GlutaMAX supplement (Thermo Fisher Scientific, cat. 35050061), 0.1 mg/mL primocin (InvivoGen, cat. ant-pm-2), 10% defined fetal bovine serum, heat inactivated (HyClone Laboratories Inc., cat. SH30070.03HI), 50% L-WRN conditioned media (ATCC, cat. CRL-3276), 1.25 mM N-Acetyl-L-cysteine (Sigma-Aldrich, cat. A9165), 10 mM nicotinamide (Sigma-Aldrich, cat. N0636), 1X B-27 supplement (Thermo Fisher Scientific, cat. 17504044), 1X N-2 supplement (Thermo Fisher Scientific, cat. 17502048), 10 microM Y-27632 dihydrochloride (Tocris Bioscience, cat. 1254), and 50 ng/mL human EGF recombinant protein (Thermo Fisher Scientific, cat. PHG0311). The 485176-168-R4-J1-PDC line was cultured in Panc media, which includes all 6C/Colon 1B media components plus 100 ng/mL human FGF-10 (Thermo Fisher Scientific, cat. 100-26), 500 nM SB-431542 (Selleckchem, cat. S1067), and gastrin (Tocris, cat. 3006).
[…]
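Also: spheroids exposed to drugs for 7 days.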
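For viability, T/C in this document: 100% = DMSO vehicle control viability.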

## CC(=O)O[C@H]1C(=O)[C@@]2(C)[C@H]([C@H](OC(=O)c3ccccc3)[C@]3(O)C[C@H](OC(=O)[C@H](O)[C@@H](NC(=O)c4ccccc4)c4ccccc4)C(C)=C1C3(C)C)[C@]1(OC(C)=O)CO[C@@H]1C[C@@H]2O + Cc1[nH]c2ccc(F)cc2c1-c1nc2c3cccnc3c3ncccc3c2[nH]1
Second compound 0.0316 µM
  IC50: < 0.0316 µM
Second compound 0.1 µM
  IC50: < 0.0316 µM
Second compound 0.316 µM
  IC50: < 0.0316 µM
Second compound 1 µM
  IC50: < 0.0316 µM
Second compound 3.16 µM
  IC50: < 0.0316 µM
Second compound 10 µM
  IC50: < 0.0316 µM
Second compound 0.0316 µM, first compound 0.0316 µM
  viability, T/C: 15.7%
Second compound 0.0316 µM, first compound 0.1 µM
  viability, T/C: 4.95%
Second compound 0.0316 µM, first compound 0.316 µM
  viability, T/C: 6.22%
Second compound 0.0316 µM, first compound 1 µM
  viability, T/C: 4.92%
Second compound 0.0316 µM, first compound 3.16 µM
  viability, T/C: 4.75%
Second compound 0.0316 µM, first compound 10 µM
  viability, T/C: 4.49%
Second compound 0.1 µM, first compound 0.0316 µM
  viability, T/C: 15%
Second compound 0.1 µM, first compound 0.1 µM
  viability, T/C: 5.55%
Second compound 0.1 µM, first compound 0.316 µM
  viability, T/C: 4.93%
Second compound 0.1 µM, first compound 1 µM
  viability, T/C: 4.7%
Second compound 0.1 µM, first compound 3.16 µM
  viability, T/C: 4.6%
Second compound 0.1 µM, first compound 10 µM
  viability, T/C: 4.6%
Second compound 0.316 µM, first compound 0.0316 µM
  viability, T/C: 15.1%
Second compound 0.316 µM, first compound 0.1 µM
  viability, T/C: 5.62%
Second compound 0.316 µM, first compound 0.316 µM
  viability, T/C: 4.72%
Second compound 0.316 µM, first compound 1 µM
  viability, T/C: 4.93%
Second compound 0.316 µM, first compound 3.16 µM
  viability, T/C: 5.02%
Second compound 0.316 µM, first compound 10 µM
  viability, T/C: 4.65%
Second compound 1 µM, first compound 0.0316 µM
  viability, T/C: 12%
Second compound 1 µM, first compound 0.1 µM
  viability, T/C: 5.43%
Second compound 1 µM, first compound 0.316 µM
  viability, T/C: 4.8%
Second compound 1 µM, first compound 1 µM
  viability, T/C: 4.59%
Second compound 1 µM, first compound 3.16 µM
  viability, T/C: 4.91%
Second compound 1 µM, first compound 10 µM
  viability, T/C: 4.25%
Second compound 3.16 µM, first compound 0.0316 µM
  viability, T/C: 11.6%
Second compound 3.16 µM, first compound 0.1 µM
  viability, T/C: 5.28%
Second compound 3.16 µM, first compound 0.316 µM
  viability, T/C: 4.81%
Second compound 3.16 µM, first compound 1 µM
  viability, T/C: 3.9%
Second compound 3.16 µM, first compound 3.16 µM
  viability, T/C: 5.02%
Second compound 3.16 µM, first compound 10 µM
  viability, T/C: 4.07%
Second compound 10 µM, first compound 0.0316 µM
  viability, T/C: 12.4%
Second compound 10 µM, first compound 0.1 µM
  viability, T/C: 5.2%
Second compound 10 µM, first compound 0.316 µM
  viability, T/C: 3.75%
Second compound 10 µM, first compound 1 µM
  viability, T/C: 3.85%
Second compound 10 µM, first compound 3.16 µM
  viability, T/C: 4.46%
Second compound 10 µM, first compound 10 µM
  viability, T/C: 3.46%
